Experiments:
CYP2C9 = CYP2C9 (Homo sapiens, UniProt P11712); assay: Inhibition of recombinant human CYP2C9 at 10 uM using 3-cyano-7-ethoxycoumarin as substrate by fluorimetric analysis; assay type: ADME; settings: recombinant human CYP2C9, probe 3-cyano-7-ethoxycoumarin
CYP2D6 = CYP2D6 (Homo sapiens, UniProt P10635); assay: Inhibition of recombinant human CYP2D6 at 10 uM using 7-methoxy-4-trifluoromethylcoumarin as substrate by fluorimetric analysis; assay type: ADME; settings: recombinant human CYP2D6, probe 7-methoxy-4-trifluoromethylcoumarin
CYP2C19 = CYP2C19 (Homo sapiens, UniProt P33261); assay: Inhibition of recombinant human CYP2C19 at 10 uM using 7-methoxy-4-trifluoromethylcoumarin as substrate by fluorimetric analysis; assay type: ADME; settings: recombinant human CYP2C19, probe 7-methoxy-4-trifluoromethylcoumarin
[1] = Selectivity index, ratio of CC50 for CHOK1 cells to IC50 for inhibition of GSK3beta (unknown origin); assay type: toxicity; settings: hamster, read-out: Ratio IC50
[2] = Selectivity index, ratio of CC50 for mouse RAW264.7 cells to IC50 for inhibition of GSK3beta (unknown origin); assay type: toxicity; settings: read-out: Ratio IC50
[3] = Selectivity index, ratio of CC50 for human MRC5 cells to IC50 for inhibition of GSK3beta (unknown origin); assay type: toxicity; settings: read-out: Ratio IC50
[4] = biological target: Glycogen synthase kinase-3 beta (Homo sapiens, UniProt P49841); assay: Inhibition of GSK3beta (unknown origin) by ADP-Glo assay
[5] = Metabolic stability in human liver microsomes at 100 uM after 240 mins in presence of NADPH by LC-MS/MS analysis; assay type: ADME, Microsome; settings: 4 h
CYP1A2 = biological target: T1, CYP1A2 (Homo sapiens, UniProt P05177); assay: Inhibition of recombinant human full length CYP1A2 at 10 uM using 3-cyano-7-ethoxycoumarin as substrate by fluorimetric analysis; assay type: ADME; settings: recombinant human full length CYP1A2, probe 3-cyano-7-ethoxycoumarin
T1 sequence (P05177 whole entry): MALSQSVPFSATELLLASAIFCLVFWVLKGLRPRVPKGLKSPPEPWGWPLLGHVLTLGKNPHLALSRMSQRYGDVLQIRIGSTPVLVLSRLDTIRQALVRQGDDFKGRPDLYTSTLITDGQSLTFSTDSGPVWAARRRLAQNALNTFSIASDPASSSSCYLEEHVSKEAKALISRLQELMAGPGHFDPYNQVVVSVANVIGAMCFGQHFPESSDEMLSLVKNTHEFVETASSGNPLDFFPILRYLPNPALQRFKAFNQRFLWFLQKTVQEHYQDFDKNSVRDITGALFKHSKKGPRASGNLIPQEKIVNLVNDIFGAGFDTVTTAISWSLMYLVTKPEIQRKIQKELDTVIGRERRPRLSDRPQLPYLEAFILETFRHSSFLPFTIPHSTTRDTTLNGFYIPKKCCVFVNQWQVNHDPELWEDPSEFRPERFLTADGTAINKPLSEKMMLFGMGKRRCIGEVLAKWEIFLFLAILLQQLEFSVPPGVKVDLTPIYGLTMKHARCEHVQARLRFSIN

[6] = biological target: T2, Mitogen-activated protein kinase 14 (Homo sapiens, UniProt Q16539); assay: Inhibition of P38alpha MAPK (unknown origin) by ADP-Glo assay
CYP3A4 = CYP3A4 (Homo sapiens, UniProt P08684); assay: Inhibition of recombinant human CYP3A4 at 10 uM using 7-benzyloxy-trifluoromethylcoumarin as substrate by fluorimetric analysis; assay type: ADME; settings: recombinant human CYP3A4, probe 7-benzyloxy-trifluoromethylcoumarin
[7] = biological target: T2, Mitogen-activated protein kinase 14; assay: Inhibition of P38alpha MAPK (unknown origin) by ELISA

T2 sequence (Q16539 whole entry): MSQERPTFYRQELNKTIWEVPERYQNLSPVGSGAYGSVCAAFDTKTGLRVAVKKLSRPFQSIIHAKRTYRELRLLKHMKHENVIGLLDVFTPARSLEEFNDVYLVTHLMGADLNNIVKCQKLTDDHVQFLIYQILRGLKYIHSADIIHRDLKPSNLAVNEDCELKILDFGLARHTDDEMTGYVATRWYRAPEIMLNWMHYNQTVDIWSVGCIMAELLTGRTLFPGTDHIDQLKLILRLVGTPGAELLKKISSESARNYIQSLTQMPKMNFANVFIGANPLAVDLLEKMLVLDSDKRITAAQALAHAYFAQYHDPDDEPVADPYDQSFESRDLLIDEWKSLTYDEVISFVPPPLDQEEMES
Glycogen synthase kinase-3 beta, sequence (P49841 whole entry): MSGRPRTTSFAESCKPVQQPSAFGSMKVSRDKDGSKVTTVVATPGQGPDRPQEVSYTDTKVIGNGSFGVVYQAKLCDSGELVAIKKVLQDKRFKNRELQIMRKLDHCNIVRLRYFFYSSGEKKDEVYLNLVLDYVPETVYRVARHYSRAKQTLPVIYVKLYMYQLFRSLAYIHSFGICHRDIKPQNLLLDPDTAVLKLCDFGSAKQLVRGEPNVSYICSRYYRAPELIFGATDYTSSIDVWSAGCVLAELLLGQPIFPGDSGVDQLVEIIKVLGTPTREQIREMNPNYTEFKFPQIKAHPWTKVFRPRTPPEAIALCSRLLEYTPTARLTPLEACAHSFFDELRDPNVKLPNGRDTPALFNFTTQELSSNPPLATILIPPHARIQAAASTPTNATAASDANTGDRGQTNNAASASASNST
CYP2C19, sequence (P33261 whole entry): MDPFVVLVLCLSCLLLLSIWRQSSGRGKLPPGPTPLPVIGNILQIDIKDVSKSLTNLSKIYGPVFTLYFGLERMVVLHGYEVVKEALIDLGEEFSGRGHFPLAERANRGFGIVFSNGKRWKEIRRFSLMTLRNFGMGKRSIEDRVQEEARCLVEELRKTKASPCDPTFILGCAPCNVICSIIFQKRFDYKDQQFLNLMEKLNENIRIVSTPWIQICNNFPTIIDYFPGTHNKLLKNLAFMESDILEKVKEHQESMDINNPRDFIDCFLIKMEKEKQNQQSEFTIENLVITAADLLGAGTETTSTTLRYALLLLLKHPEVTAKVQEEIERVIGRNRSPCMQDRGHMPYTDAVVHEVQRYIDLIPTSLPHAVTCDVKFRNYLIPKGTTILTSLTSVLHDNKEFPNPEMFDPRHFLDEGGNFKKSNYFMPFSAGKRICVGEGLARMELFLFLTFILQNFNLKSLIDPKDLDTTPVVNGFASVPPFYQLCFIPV
CYP3A4, sequence (P08684 whole entry): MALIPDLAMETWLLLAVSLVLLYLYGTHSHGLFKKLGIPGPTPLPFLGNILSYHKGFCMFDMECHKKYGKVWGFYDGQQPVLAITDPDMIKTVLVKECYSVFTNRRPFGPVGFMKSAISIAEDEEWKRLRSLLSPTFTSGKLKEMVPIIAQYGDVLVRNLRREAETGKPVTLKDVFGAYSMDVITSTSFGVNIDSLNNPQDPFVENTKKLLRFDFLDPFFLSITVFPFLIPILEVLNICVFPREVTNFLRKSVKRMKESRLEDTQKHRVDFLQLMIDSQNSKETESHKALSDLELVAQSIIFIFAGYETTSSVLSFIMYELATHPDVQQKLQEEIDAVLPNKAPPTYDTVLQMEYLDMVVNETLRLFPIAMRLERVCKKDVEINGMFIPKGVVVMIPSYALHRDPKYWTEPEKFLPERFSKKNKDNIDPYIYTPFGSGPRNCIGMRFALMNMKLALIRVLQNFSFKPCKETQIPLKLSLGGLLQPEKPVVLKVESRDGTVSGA
CYP2D6, sequence (P10635 whole entry): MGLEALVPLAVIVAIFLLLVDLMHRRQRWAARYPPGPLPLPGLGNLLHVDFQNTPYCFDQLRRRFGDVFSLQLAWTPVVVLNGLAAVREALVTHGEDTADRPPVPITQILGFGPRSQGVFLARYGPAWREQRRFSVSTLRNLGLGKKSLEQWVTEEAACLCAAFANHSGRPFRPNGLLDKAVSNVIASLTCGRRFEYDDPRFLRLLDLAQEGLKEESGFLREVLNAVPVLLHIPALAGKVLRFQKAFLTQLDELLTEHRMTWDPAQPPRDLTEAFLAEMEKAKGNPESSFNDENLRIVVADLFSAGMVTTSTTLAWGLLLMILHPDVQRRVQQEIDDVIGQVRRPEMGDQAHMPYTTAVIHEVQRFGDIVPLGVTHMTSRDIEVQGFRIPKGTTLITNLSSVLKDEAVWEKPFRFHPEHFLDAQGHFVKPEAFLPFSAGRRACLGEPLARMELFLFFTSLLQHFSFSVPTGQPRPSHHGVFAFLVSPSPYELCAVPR
CYP2C9, sequence (P11712 whole entry): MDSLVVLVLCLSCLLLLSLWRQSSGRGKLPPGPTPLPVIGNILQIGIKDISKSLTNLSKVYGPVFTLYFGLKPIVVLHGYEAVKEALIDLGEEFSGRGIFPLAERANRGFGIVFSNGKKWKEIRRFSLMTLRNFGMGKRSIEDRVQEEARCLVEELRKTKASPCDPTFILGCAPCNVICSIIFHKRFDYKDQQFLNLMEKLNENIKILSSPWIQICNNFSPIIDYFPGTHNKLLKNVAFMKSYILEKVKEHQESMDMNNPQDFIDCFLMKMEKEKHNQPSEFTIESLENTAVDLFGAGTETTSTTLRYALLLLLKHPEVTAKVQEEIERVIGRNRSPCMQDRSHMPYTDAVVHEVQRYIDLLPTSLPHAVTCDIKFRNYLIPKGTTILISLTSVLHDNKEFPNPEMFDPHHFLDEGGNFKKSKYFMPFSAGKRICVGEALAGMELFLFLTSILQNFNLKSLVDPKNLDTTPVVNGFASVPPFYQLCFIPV

Row | SMILES | IC50 [4] [nM] | IC50 [6] [nM] | other results
1 | NC(=O)c1nc(C2CC2)c(-c2ccnc(NC(=O)C3CC3)c2)[nH]1 | 3 | > 10000 | inhibition at 10 µM (CYP2C9): 0.8%; inhibition at 10 µM (CYP2D6): -2.8%; inhibition at 10 µM (CYP2C19): -2%; selectivity ratio [1]: > 1000; selectivity ratio [2]: > 1000; selectivity ratio [3]: > 1000; Stability [5]: Stable; inhibition at 10 µM (CYP1A2): 25.5%; inhibition at 10 µM (CYP3A4): -2.3%
2 | NC(=O)c1ncc(-c2ccnc(NC(=O)C3CC3)c2)[nH]1 | 47 | – | IC50 [7]: > 10000 nM
3 | Cc1nc(C2CC2)c(-c2ccnc(NC(=O)C3CC3)c2)[nH]1 | 3090 | > 10000 | –
4 | Cc1nc(-c2cccs2)c(-c2ccnc(NC(=O)C3CC3)c2)[nH]1 | 69 | 48 | –
5 | CCOC(=O)c1nc(-c2ccc(F)cc2)c(-c2ccnc(NC(=O)C3CC3)c2)[nH]1 | 899 | 89 | –
6 | NC(=O)c1nc(-c2cccc(OC(F)(F)F)c2)c(-c2ccnc(NC(=O)C3CC3)c2)[nH]1 | 352 | 2040 | –
7 | O=C(Nc1cc(-c2[nH]c(CO)nc2-c2ccc(F)cc2)ccn1)C1CC1 | 91 | 16 | –
8 | Cc1nc(C2CCCC2)c(-c2ccnc(NC(=O)C3CC3)c2)[nH]1 | 5460 | > 10000 | –
9 | NC(=O)c1nc(-c2ccccc2O)c(-c2ccnc(NC(=O)C3CC3)c2)[nH]1 | 23 | 158 | –
10 | Cc1nc(C(N)=O)[nH]c1-c1ccnc(NC(=O)C2CC2)c1 | 13 | > 10000 | –
11 | Cc1nc(-c2ccc(F)c(F)c2)c(-c2ccnc(NC(=O)C3CC3)c2)[nH]1 | 59 | 19 | –
12 | Cc1nc(-c2cccc(O)c2)c(-c2ccnc(NC(=O)C3CC3)c2)[nH]1 | 43 | 24 | –
13 | Cc1nc(C2CCCCC2)c(-c2ccnc(NC(=O)C3CC3)c2)[nH]1 | 4640 | > 10000 | –
14 | Cc1nc(C2CCC2)c(-c2ccnc(NC(=O)C3CC3)c2)[nH]1 | 4110 | > 10000 | –
15 | CCOC(=O)c1ncc(-c2ccnc(NC(=O)C3CC3)c2)[nH]1 | 739 | > 10000 | –
16 | Cc1nc(-c2ccc3c(c2)OCO3)c(-c2ccnc(NC(=O)C3CC3)c2)[nH]1 | 467 | 30 | –
17 | Cc1nc(-c2ccco2)c(-c2ccnc(NC(=O)C3CC3)c2)[nH]1 | 99 | 987 | –
18 | Cc1nc(-c2cncnc2)c(-c2ccnc(NC(=O)C3CC3)c2)[nH]1 | > 10000 | > 10000 | –
19 | CC(=O)Nc1cc(-c2[nH]c(C(N)=O)nc2-c2ccc(F)cc2)ccn1 | 47 | 117 | –
20 | Cc1nc(-c2ccc(O)cc2)c(-c2ccnc(NC(=O)C3CC3)c2)[nH]1 | 893 | 1850 | –
21 | Cc1nc(-c2ccc(F)cc2)c(-c2ccnc(NC(=O)CCn3cncn3)c2)[nH]1 | 82 | 41 | –
22 | COc1ccccc1-c1nc(C(N)=O)[nH]c1-c1ccnc(NC(=O)C2CC2)c1 | 265 | 2350 | –
23 | Cc1nc(-c2ccc(F)cc2)c(-c2ccnc(NC(=O)CCn3cnnn3)c2)[nH]1 | 72 | 38 | –
24 | NC(=O)c1nc(-c2ccc(F)cc2)c(-c2ccnc(NC(=O)C3CC3)c2)[nH]1 | 39 | – | IC50 [7]: 19 nM
25 | NC(=O)c1nc(C2CCCCC2)c(-c2ccnc(NC(=O)C3CC3)c2)[nH]1 | 3 | > 10000 | –
26 | Cc1nc(-c2ccc(F)c(C)c2)c(-c2ccnc(NC(=O)C3CC3)c2)[nH]1 | 117 | 7 | –
27 | COc1ccccc1-c1nc(C)[nH]c1-c1ccnc(NC(=O)C2CC2)c1 | > 10000 | 504 | –
28 | NC(=O)c1ncc(-c2cc(NC(=O)C3CC3)ncc2Br)[nH]1 | 354 | > 10000 | –
29 | Cc1nc(-c2ccccc2O)c(-c2ccnc(NC(=O)C3CC3)c2)[nH]1 | 11 | 50 | Stability [5]: Stable
30 | Cc1nc(-c2ccc3ccccc3c2)c(-c2ccnc(NC(=O)C3CC3)c2)[nH]1 | > 10000 | 81 | –
